Measured values: PMC9767416, “Discovery of small molecule mechanistic target of rapamycin inhibitors as anti-aging and anti-cancer therapeutics” (Frontiers in Aging Neuroscience, 2022)
In brackets after ≈: the same amount, converted by molar mass. Like-named read-outs stand apart in the source and are kept apart here. Marks after values point to notes of the source that are not given here.

Tests used:
[1] = Dissociation constants by spectrophotometric titration; type: physicochemical; conditions: 20°C; for pKa: ultrapure water
Experimental: The spectrophotometric titration was used for dissociation constants’ determination, utilizing spectrophotometer Agilent Cary-60 (Agilent Technologies, CA, USA), pH meter WTW InoLab_IDS Multi 9430 (WTW, Czech Republic), and pH electrode SenTix® Mic (WTW, Czech Republic). Data were analyzed by GraphPadPrism 8.0 software (GraphPad Software, CA, USA). The analyzed samples were prepared by adding 20 μL of compound stock solution (2 mg/mL) and 20 μL of 0.1 M hydrochloric acid into the cuvette with ultrapure water (total volume 3.5 mL). The samples were titrated by 0.1 M sodium hydroxide at 20°C while acquiring absorption spectra (190–500 nm) at different pH values. Absorbance at the chosen wavelength was plotted as a function of pH. The inflection point in the given plot was used for pKa value determination.

[2] = Shake-flask partition coefficient logP and distribution coefficient logD (pH 7.4); type: physicochemical; conditions: for logD: n-octanol/sodium phosphate buffer pH 7.4; for logP: n-octanol/water
Experimental: Before the initiation of the intended experiments, all solvents were mutually saturated at 21°C. […] For saturation, large stock bottles containing n-octanol and 12% of water/buffer or water/buffer and 12% of n-octanol were shaken for 30 mins on a mechanical shaker and subsequently left to stand on the bench overnight until the phases separated. Approximately 0.50 mg of tested substance was added to the test vessels alongside with 1:1 volume ratio of saturated solvents (250 μL). The test vessels were shaken on the mechanical shaker (Multi Reax, Heidolph Instruments, Schwabach, Germany) for 30 min at the highest speed and then centrifuged for phase separation (16.873 × g for 5 min; Eppendorf 5418 Microcentrifuge, Prague, Czech Republic). Both organic and aqueous phases were sampled for LC-MS analysis. UHPLC-DAD-MS (UHPLC Infinity II 1290, detection by DAD and QqQ 6470; Agilent Technologies, CA, USA; separation on Arion C18 polar column 100 × 2.1 mm, 2.1 μm; Chromservis, Czech Republic) was used for determination of the exact concentration of tested substances. The total quantity of substance (in both phases) was used for logP/logD values calculation.

[3] = CNS MPO desirability score
Experimental: ACDLAbs PhysChem Suite 14.0 software (Advanced Chemistry Development, Inc., Toronto, ON, Canada) was used for the calculation of Mw, tPSA, and HBD values. The CNS MPO score calculation method was described by [Wager et al. (2016)].
Central nervous system multiparameter optimization desirability score was calculated as described by [Wager et al. (2016)], utilizing all collected experimental and calculated data. This scoring tool was set on ranges of desirable property space and linear transformational functions with values between 0 and 1 (defined as T0 for each property). Rating each parameter equally, the collective score ranges from 0 to 6, while a score higher than 4 is desirable ([Rankovic, 2015]).

[4] = Solubility by nephelometry (water, buffer pH 7.4); type: physicochemical; conditions: for solubility at 30 s: medium not told apart (water and buffer pH 7.4)
Experimental: Compounds’ solubility was measured by the NEPHELOstar microplate instrument (BMG Labtech, Offenburg, Germany). Stock solutions were prepared by dissolving the tested compounds in ultrapure water or sodium phosphate buffer (pH 7.4) to obtain a concentration of 160 and 1,000 μg/mL. Each stock solution was sonicated at full power by Hielscher UP100H needle ultrasonic processor (Teltow, Germany) before loading into NEPHELOstar instrument injector A. Ultrapure water or sodium phosphate buffer was loaded into injector B. Compound was diluted in 48 wells in 0–160 or 0–1,000 μg/mL range and subsequently shook for 30 s. Each well was scanned with 80% laser power in matrix 3 × 3, beam width 2 mm, and obtained data were evaluated in GraphPad Prism 7.03 (GraphPad Software, San Diego, CA, USA) using segmental linear regression.

BJ, RPE-1 and U373 cells = assay: Crystal violet and resazurin proliferation screen in proliferating cells; type: cell-based, human; conditions: RPE-1, U373, 0, 10, 50, 80, 100 μM, 24 h
Experimental: All cell lines used in the study were obtained from the American Type Culture Collection (ATCC, Manassas, VA, USA). Human telomerase-immortalized retinal pigment epithelial cells RPE-1, glioblastoma U-87 MG, glioblastoma U373MG, glioblastoma T98G, glioblastoma A-172, breast adenocarcinoma MDA-MB-231, prostate carcinoma DU-145, and non-small cell lung cancer NCI-H1299 cell lines were cultured in Dulbecco’s modified Eagle’s medium (DMEM, Thermo Fisher Scientific, Waltham, MA, USA) with high glucose (4.5 g/L). Primary human skin BJ fibroblasts were cultured in Dulbecco’s modified Eagle’s medium (DMEM, Thermo Fisher Scientific, Waltham, MA, USA) with low glucose (1 g/L). Both cell culture media were supplemented with 10% fetal bovine serum (FBS, Gibco/Thermo Fisher Scientific) and non-essential amino acids (NEAA), 100 units/mL of penicillin, and 100 μg/mL of streptomycin (Sigma-Aldrich). Cells were kept at 37°C under a 5% CO2 atmosphere and 95% humidity.
(§1) Twenty-four hours before treatment, cells were plated in 96-well plates at densities of 2,850 cells per well for senescent RPE-1 (IR-RPE-1), 3,350 cells per well for proliferating RPE-1 and senescent BJ (DIS-BJ), and 5,000 cells per well for U373, T98, A172, U87, TMZ-U87, and proliferating BJ cells.
(§2) For the crystal violet assay, the cells were washed twice with 150 μL PBS and stained with 30 μL 0.5% (w/v) crystal violet in 20% methanol for 15 mins. Next, the plates were washed five times with ddH2O and left to dry overnight. Crystal violet was solubilized with 75 μL 0.2% Triton X-100 (Sigma) in PBS for 15 mins. The absorbance was read at 595 nm using a microplate reader (Envision, PerkinElmer, Waltham, MA, USA). The absorbance of crystal violet in treated cells was expressed as a percentage of absorbance in untreated cells. Each condition was measured at least in triplicate.
For the resazurin assay, 200 μL of the culture medium of each well was exchanged for 100 μL of resazurin (stock solution 30 mg/mL; Sigma, St. Louis, MO, USA) diluted 10 times in the culture medium, and the cells were incubated at 37°C for 1–3 h. Reading of fluorescence was done using a microplate reader (PerkinElmer, Waltham, MA, USA). Absolute values of fluorescence were related to the values of untreated cells. Each condition was measured at least in triplicate.

[5] = test system: IR-induced senescent RPE-1 cells; assay: Crystal violet and resazurin assays in IR-induced senescent RPE-1; type: cell-based, human; conditions: γ-irradiated RPE-1; crystal violet readout only
Experimental: To obtain ionizing radiation (IR)-induced senescent cells, proliferating RPE-1 cells were exposed to a single dose of X-rays (20 Gy) using Pantak HF160 (Gulmay, Surrey, UK) X-ray instrument equipped with Pantak Seifert HF320 generator, MXR-161 X-ray tube (Comet AG, Flamatt, Switzerland), and an aluminum filter using current 1–10 mA. After irradiation, the cells were cultured for an additional 7 days until the development of the senescent phenotype ([Salovska et al., 2022]). To induce docetaxel-induced senescence (DIS), BJ cells were exposed to 5 nM docetaxel for 7 days, as described previously ([Sapega et al., 2018]). To prepare temozolomide (TMZ)-induced senescence, U87 cells were exposed to 100 μM TMZ for 14 days.
as §1, §2
For the resazurin assay, 200 μL of the culture medium of each well was exchanged for 100 μL of resazurin (stock solution 30 mg/mL; Sigma, St. Louis, MO, USA) diluted 10 times in the culture medium, and the cells were incubated at 37°C for 1–3 h. Reading of fluorescence was done using a microplate reader (PerkinElmer, Waltham, MA, USA). Absolute values of fluorescence were related to the values of untreated cells. Each condition was measured at least in triplicate. […]

[6] = from experimental and calculated data, method of Wager et al. (2016), scale 0-6
[7] = aqueous buffer, sodium phosphate buffer pH 7.4, nephelometry, read-out: Sol. (buffer 7.4)
[8] = ultrapure water, nephelometry, read-out: Sol. (H2O)
[9] = n-octanol/sodium phosphate buffer, pH 7.4, shake-flask, read-out: logD
[10] = sodium phosphate buffer pH 7.4, nephelometry

| Structure (SMILES) | pKa ([1]; read-out: pKa1) | logD ([2]; shake-flask) | logP ([2]; shake-flask) | MPO (CNS MPO score) [3, 6] | solubility kinetic at 30 s [4, 7] | solubility kinetic at 30 s [4, 8] | logSH2O ([4]; water) | effect on the readout of crystal violet and resazurin assays (BJ, RPE-1 and U373 cells) | melting point | logSpH 7.4 ([4]; buffer pH 7.4) | solubility at 30 s [4] | logD [2, 9] | logP ([2]; shake-flask, read-out: logP) | Sol. (buffer 7.4) [4, 10] | Sol. (H2O) ([4]; ultrapure water, nephelometry) | further results |
| --- | --- | --- | --- | --- | --- | --- | --- | --- | --- | --- | --- | --- | --- | --- | --- | --- |
| c1ccc2[nH]c(NC3CCNCC3)nc2c1 [Compound 1, N-(piperidine-4-yl)-1H-benzo[d]imidazol-2-amine] | 6.18 ± 0.04 | 0.85 ± 0.03 | 1.86 ± 0.07 | 5.2 | > 160 µg/mL | 33.3 µg/mL (≈ 154 µM) | −3.81 | mild (although sometimes statistically significant) suppressive effect | 227 to 229 °C |  |  |  |  |  |  |  |
| Br.Br.c1ccc2[nH]c(NC3CCNCC3)nc2c1 [Compound 2, N-(piperidin-4-yl)-1H-benzo[d]imidazol-2-amine dihydrobromide] |  | −0.89 ± 0.11 | −1.01 ± 0.01 | 4.9 | 299 µg/mL | > 1000 µg/mL | >−2.58 | mild (although sometimes statistically significant) suppressive effect | 275 to 277 °C | −3.10 | > 1000 µg/mL |  |  |  |  | pKa1 [1]: 6.08 ± 0.08 |
| NC(=O)[C@@H]1CC[C@H](C(=O)O)N1 [Compound 4] | 3.17 ± 0.09 |  |  | 4.9 | > 1000 µg/mL | > 1000 µg/mL | >−2.20 | mild (although sometimes statistically significant) suppressive effect |  | >−2.20 | > 1000 µg/mL | -2.82 ± 0.22 | -2.89 ± 0.16 |  |  | pKa ([1]; read-out: pKa2): 7.8 ± 0.11 |
| COc1ccc(CN2CCNC2=N)cc1OC [Compound 5] |  |  |  |  |  |  |  | no effect |  |  |  | -1.78 ± 0.08 | -1.79 ± 0.04 |  |  | MPO (CNS MPO score) ([3]; experimental pKa unknown: calculated with T0(pKa) equal to zero): 4.5^a; logSH2O ([4]; 30 s): >−3.36; logSpH 7.4 ([4]; 30 s, pH 7.4): >−3.36; solubility kinetic at 30 s ([4]; pH 7.4, aqueous buffer): > 160 µg/mL; solubility kinetic at 30 s ([4]; water): > 160 µg/mL; selectivity for senescent versus proliferating cells [5]: mild but selective effect |
| CN(C)c1cccc(-c2cccc(C(N)=O)c2)c1 [Compound 6, 3’-(Dimethylamino)-[1,1’-biphenyl]-3-carboxamide] | 4.8 ± 0.06 |  |  | 5 | < 6 µg/mL | < 6 µg/mL | <−4.60 | mild (although sometimes statistically significant) suppressive effect | 104 to 106 °C | <−4.60 |  | 2.91 ± 0.01 | 2.86 ± 0.01 | lower than 6 μg/mL | lower than 6 μg/mL |  |
| CO[C@H]1C[C@@H]2CC[C@@H](C)[C@@](O)(O2)C(=O)C(=O)N2CCCC[C@H]2C(=O)O[C@H]([C@H](C)C[C@@H]2CC[C@@H](O)[C@H](OC)C2)CC(=O)[C@H](C)/C=C(\C)[C@@H](O)[C@@H](OC)C(=O)[C@H](C)C[C@H](C)/C=C/C=C/C=C/1C [Rapamycin, rapamycin] | 10.7 ± 0.21 |  |  | 0.7 | < 6 µg/mL | < 6 µg/mL | <−5.18 |  |  | <−5.18 |  | 4.63 ± 0.04 | 3.97 ± 0.03 | lower than 6 μg/mL | lower than 6 μg/mL | logSpH 7.4 ([4]; buffer pH 7.4, listed as rapamycin): < −4.60; logSH2O ([4]; water, listed as rapamycin): < −4.60 |
